Entries after “also recorded” stand apart in the source; their conditions may differ.
Experiments:
[1] = test system: ear of the BALB/c mouse; experiment: Tolerance study: anti-irritant in preventive treatment before topical Differin gel, ear thickness (edema); format: in vivo; settings: for effect of the anti-irritant on the irritation caused by Differin gel (in words): anti-irritant applied before Differin gel; for % AUC inhibition vs Differin (reduction of edema/irritation due to Differin gel): anti-irritant solution followed by Differin gel, D1-D6, AUC D2-D19
Experimental: The anti-irritants used are formulated, unless otherwise indicated, in an ethanol/water (50:50) vehicle at the concentrations shown in the table below.
The goal of the present study is to compare the irritant power of a reference gel, comprising 0.1% adapalene, when this treatment is preceded or not preceded by treatment with an anti-irritant.
The treatment consists of a daily topical application (20 μl) of anti-irritant, formulated in an aqueous/alcoholic vehicle (50% ethanol and 50% water by volume), on the internal face of the right ear of BALB/c mice divided into 15 groups (female mice approximately 9 weeks old), followed by a topical application (20 μl) of Differin® gel (reference gel comprising 0.1% adapalene) at the rate of one application of each formulation per day for 6 days.
Evaluation is carried out by measurements of the thickness of the ear by means of the Oditest and by clinical observation of the animals from the 2nd to 19th day.

[2] = test system: comedones on the back of the Rhino mouse; experiment: Comedolytic activity of Differin gel alone or preceded by an anti-irritant on the Rhino mouse; format: in vivo; settings: split treatment, 18 days
Source text: The goal of the present study is to compare the comedolytic activity of Differin® gel (reference gel comprising 0.1% adapalene) whether this treatment is preceded or not preceded by a treatment with an anti-irritant.

Compound: O=C(O)CN(CCN(CC(=O)O)CC(=O)O)CC(=O)O [EDTA]
- effect of the anti-irritant on the irritation caused by Differin gel (in words) [1]: effective in reducing the irritation

Compound: NC(=O)NC1NC(=O)NC1=O (stereo not drawn) [allantoin, Allantoin]
- effect of the anti-irritant on the irritation caused by Differin gel (in words) [1]: effective in reducing the irritation
- effect on the comedolytic activity of Differin gel (in words) [2]: does not reduce the comedolytic activity

Compound: CC1(C)[C@@H](O)CC[C@]2(C)[C@H]3C(=O)C=C4[C@@H]5C[C@@](C)(C(=O)O)CC[C@]5(C)CC[C@@]4(C)[C@]3(C)CC[C@@H]12 [enoxolone, Enoxolone, reference compound]
- effect of the anti-irritant on the irritation caused by Differin gel (in words) [1]: virtually no effect; also recorded: do not have an effect

Compound: O.O.O.O.O.O.[Cl-].[Cl-].[Sr+2] [strontium chloride hexahydrate, Strontium chloride hexahydrate]
- effect of the anti-irritant on the irritation caused by Differin gel (in words) [1]: effective in reducing the irritation

Compound: O=[N+]([O-])[O-].O=[N+]([O-])[O-].[Sr+2] [strontium nitrate, Strontium nitrate]
- effect of the anti-irritant on the irritation caused by Differin gel (in words) [1]: effective in reducing the irritation
- effect on the comedolytic activity of Differin gel (in words) [2]: does not reduce the comedolytic activity

Compound: O=S(=O)([O-])[O-].[Zn+2] [zinc sulfate, Zinc sulfate]
- effect of the anti-irritant on the irritation caused by Differin gel (in words) [1]: a reduction in the irritation; also recorded: effective in reducing the irritation
- % AUC inhibition vs Differin (reduction of edema/irritation due to Differin gel) [1]: 25%

Compound: Potassium disodium salt of β-glycyrrhizic acid [reference compound]
- effect of the anti-irritant on the irritation caused by Differin gel (in words) [1]: virtually no effect; also recorded: do not have an effect

Compound: Sodium choleate
- effect of the anti-irritant on the irritation caused by Differin gel (in words) [1]: slightly reduces; also recorded: effective in reducing the irritation
- % AUC inhibition vs Differin (reduction of edema/irritation due to Differin gel) [1]: 9%
